# Experimental data as given in US9303017B2, “2,5-disubstituted-pyridyl nicotinic ligands, and methods of use thereof” (Georgetown University, priority 2011, dated 2016).
# pEC50, pIC50, pKi: −log10 of the molar value. Where two headings read alike, the source gives them in different places.
# Experiments:
# human α4β2 nAChRs = human α4β2 nAChRs (Homo sapiens (Human), UniProt P17787+P43681); assay: 86Rb+ efflux assay (activation and desensitization), α4β2; format: cell-based; conditions: for Emax α4β2 nAChRs / Emax: agonist efficacy normalized to Emax of nicotine; for Emax α4β2 nAChRs / pEC50 / Emax: ND = no significant stimulated efflux detected; for pIC50: desensitization; for pEC50: agonist activity; for Emax: read-out: Emax α4β2 nAChRs
# Description: (§1) In Vitro Effects on nAChR Function. […] Their agonist activities were assessed by measuring stimulated ^86Rb^+ efflux from stably transfected cells, either expressing human α4β2 nAChRs or rat α3β4 receptors.
# (§2) Cell Lines and Cell Culture. The cell lines expressing defined rat nAChR subtypes were established previously by stably transfecting HEK 293 cells with rat nAChR subunit genes. The cell line expressing human α4β2 nAChRs, YXα4β2H1, was established recently. These cell lines were maintained in minimum essential medium (MEM) supplemented with 10% fetal bovine serum, 100 units/mL penicillin G, […] and selective antibiotics at 37° C. with 5% CO2 in a humidified incubator. Fetal bovine serum was provided by Gemini Bio-Products (Woodland, Calif.). Tissue culture medium and antibiotics were obtained from Invitrogen Corporation (Carlsbad, Calif.), unless otherwise stated.
# (§3) ^86Rb^+ Efflux Assay. Functional properties of compounds at nAChRs expressed in the transfected cells were measured using ^86Rb^+ efflux assays as described previously. In brief, cells expressing human α4β2 or rat α3β4 nAChRs were plated into 24-well plates coated with poly-D-lysine. The plated cells were grown at 37° C. for 18 to 24 hour to reach 85-95% confluence. The cells were then incubated in growth medium (0.5 mL/well) containing ^86Rb^+ (2 μCi/mL) for 4 hour at 37° C. The loading mixture was then aspirated, and the cells were washed four times with 1 mL buffer (15 mM HEPES, 140 mM NaCl, 2 mM KCl, 1 mM MgSO4, 1.8 mM CaCl2, 11 mM Glucose, pH 7.4). One mL of buffer with or without compounds to be tested was then added to each well. After incubation for 2 min, the assay buffer was collected for measurements of ^86Rb^+ released from the cells. Cells were then lysed by adding 1 mL of 100 mM NaOH to each well, and the lysate was collected for determination of the amount of ^86Rb^+ that was in the cells at the end of the efflux assay. Radioactivity of assay samples and lysates was measured by liquid scintillation counting. Total loading (cpm) was calculated as the sum of the assay sample and the lysate of each well. The amount of ^86Rb^+ efflux was expressed as a percentage of ^86Rb^+ loaded. […] For obtaining EC50 and Emax values, stimulation curves were constructed in which 8 different concentrations of a ligand were included in the assay. […] EC50, Emax and IC50(10′) values were determined by nonlinear least-squares regression analyses (GraphPad, San Diego, Calif.).
# (§4) The functional properties of the ligands were determined by ^86Rb^+ efflux assays in cells expressing α3β4 and α4β2 nAChR subtypes. The functional activity of each ligand was measured for its agonism, antagonism and desensitization ability. Agonist activity for each of the ligands was tested at eight different concentrations. […] The full concentration-effect curves generated potency (EC50) and efficacy (Emax) of each ligand. […] We tested each ligand for antagonist activity at eight concentrations. The potency (IC50(0′)) of each ligand as an antagonist was derived from the full concentration-effect curves.
# α4β2 nAChR = α4β2 nAChR (Rattus norvegicus (Rat), UniProt P09483+P12390); assay: biochemical; format: binding; conditions: for pKi: read-out: Ki α4β2; for Ki Ratio α3β4/α4β2: selectivity for α4β2 over α3β4; for Ki Ratio α7/α4β2: selectivity for α4β2 over α7
# Description: (§5) In Vitro Binding Affinities for nAChR Subtypes. […] To determine selectivities of these compounds in binding assays among the three predominant nAChR subtypes, α3β4, α4β2 and α7, the ratios of Ki values (α3β4/α4β2 and α7/α4β2) were determined.
# as §2
# (§6) Briefly, cultured cells at >80% confluence were removed from their flasks (80 cm^2) with a disposable cell scraper and placed in 10 mL of 50 mM Tris.HCl buffer (pH 7.4, 4° C.). The cell suspension was centrifuged at 10,000×g for 5 min and the pellet was collected. The cell pellet was then homogenized in 10 mL buffer with a polytron homogenizer and centrifuged at 36,000 g for 10 min at 4° C. The membrane pellet was resuspended in fresh buffer, and aliquots of the membrane preparation were used for binding assays. […] Bound and free ligands were separated by vacuum filtration through Whatman GF/C filters treated with 0.5% polyethylenimine. The filter-retained radioactivity was measured by liquid scintillation counting. Specific binding was defined as the difference between total binding and nonspecific binding. Data from competition binding assays were analyzed using Prism 5 (GraphPad Software, San Diego, Calif.).
# (§7) Pharmacological Properties. We measured the in vitro binding affinities of the ligands for defined receptor subtypes (α2β2, α2β4, α3β2, α3β4, α4β2, α4β4, α6β2, α6β4, and α7) expressed in stably transfected cell lines. […] Rat forebrain homogenates were included to allow comparison between the heterologous and native α4β2 and α7 nAChRs. See Table 1 for binding affinity values (Ki) of the ligands at the three major nAChR subtypes (α3β4. α4β2 and α7).
# α3β4 nAChR = α3β4 nAChR (Rattus norvegicus (Rat), UniProt P04757+P12392); assay: [3H]-epibatidine competition binding, α3β4
# Description: as §5, §2, §6, §7
# rat α3β4 nAChRs = rat α3β4 nAChRs (Rattus norvegicus (Rat), UniProt P04757+P12392); assay: 86Rb+ efflux assay (activation and desensitization), α3β4; format: cell-based
# Description: as §1, §2, §3, §4
# α7 nAChR = α7 nAChR (Rattus norvegicus (Rat), UniProt Q05941); format: binding
# Description: as §5, §2, §6, §7
# α3β2 nAChR = α3β2 nAChR (Rattus norvegicus (Rat), UniProt P04757+P12390); assay: [3H]-epibatidine competition binding, α3β2; conditions: Table 1; mean of 3 to 5 measurements
# Description: as §5
# as §2, with “Tissue culture medium and antibiotics were obtained from Invitrogen Corporation (Carlsbad, Calif.), unless otherwise stated.” left out
# (§8) Briefly, cultured cells at >80% confluence were removed from their flasks (80 cm^2) with a disposable cell scraper and placed in 10 mL of 50 mM Tris.HCl buffer (pH 7.4, 4° C.). […] The filter-retained radioactivity was measured by liquid scintillation counting. […] Data from competition binding assays were analyzed using Prism 5 (GraphPad Software, San Diego, Calif.).
# (§9) Pharmacological Properties. We measured the in vitro binding affinities of the ligands for defined receptor subtypes (α2β2, α2β4, α3β2, α3β4, α4β2, α4β4, α6β2, α6β4, and α7) expressed in stably transfected cell lines. […]
# α2β2 nAChR = α2β2 nAChR (Rattus norvegicus (Rat), UniProt P12389+P12390); assay: [3H]-epibatidine competition binding, α2β2; conditions: Table 1; mean of 3 to 5 measurements
# Description: as §5
# as §2, with “Tissue culture medium and antibiotics were obtained from Invitrogen Corporation (Carlsbad, Calif.), unless otherwise stated.” left out
# as §8, §9
# α4β4 nAChR = α4β4 nAChR (Rattus norvegicus (Rat), UniProt P09483+P12392); assay: [3H]-epibatidine competition binding, α4β4; conditions: Table 1; mean of 3 to 5 measurements
# Description: as §5
# as §2, with “Tissue culture medium and antibiotics were obtained from Invitrogen Corporation (Carlsbad, Calif.), unless otherwise stated.” left out
# as §8, §9
# α2β4 nAChR = α2β4 nAChR (Rattus norvegicus (Rat), UniProt P12389+P12392); assay: [3H]-epibatidine competition binding, α2β4; conditions: Table 1; mean of 3 to 5 measurements
# Description: as §5
# as §2, with “Tissue culture medium and antibiotics were obtained from Invitrogen Corporation (Carlsbad, Calif.), unless otherwise stated.” left out
# as §8, §9
# [1] = 10 min pre-incubation before 100 μM nicotine, Table 2, read-out: IC50(10′) α4β2 nAChRs
# [2] = read-out: IC50(10′) α3β4 nAChRs
# [3] = 10 min pre-treatment, Table 3 (Example 4), read-out: IC50(10′) α4β2
# [4] = Table 1, mean of 3 to 5 measurements
Compound,Emax α4β2 nAChRs (human α4β2 nAChRs),pIC50 (human α4β2 nAChRs; [1]),pKi (α4β2 nAChR; Table 3 (Example 4)),pKi (α3β4 nAChR; Table 3 (Example 4)),pIC50 (rat α3β4 nAChRs; [2]),pKi (α7 nAChR; Table 3 (Example 4)),pIC50 (human α4β2 nAChRs; [3]),pKi (α3β4 nAChR; [4]),pIC50 (rat α3β4 nAChRs; read-out: IC50(10′) α3β4),pEC50 (human α4β2 nAChRs),Emax (human α4β2 nAChRs) [%],Ki Ratio α3β4/α4β2 (α4β2 nAChR),Ki Ratio α7/α4β2 (α4β2 nAChR),pKi (α4β2 nAChR; [4]),other results
"CCCCC#Cc1cnc(C)c(OC[C@@H]2CCCN2)c1 [(S)-16, (S)-5-(hex-1-ynyl)-2-methyl-3-(pyrrolidin-2-ylmethoxy)pyridine]",didn't show detectable agonist activity,5.80,7.14,4.03,5.19,4.09,–,–,–,–,–,–,–,–,–
"Cc1ncc(C#CCCCCF)cc1OC[C@@H]1CCN1 [(S)-22, (S)-3-(azetidin-2-ylmethoxy)-5-(6-fluorohex-1-ynyl)-2-methylpyridine]",didn't show detectable agonist activity,6.89,–,3.89,< 5.00,3.82,6.85,3.82,4.89,–,–,–,–,–,pKi (α3β2 nAChR): 6.64; pKi (α2β2 nAChR): 8.06; pKi (α4β4 nAChR): 5.52; pKi (α7 nAChR; [4]): 3.82; pKi (α2β4 nAChR): 4.62
"OCCCCC#Cc1cncc(OC[C@@H]2CCN2)c1 [Sazetidine-A, reference compound]",–,7.92,10.21,5.72,< 5.00,5.80,8.12,–,–,7.62,40,"31,000","11,000",–,"pEC50 (rat α3β4 nAChRs; agonist activity, ND = no significant stimulated efflux detected): 4.62; pIC50 (rat α3β4 nAChRs; desensitization, 10 min pre-treatment, Table 3 (Example 4), read-out: IC50(10′) α3β4): < 5.00; Emax (rat α3β4 nAChRs; read-out: Emax α3β4 nAChRs): 17%"
"Cc1ncc(C#CCCCCO)cc1OC[C@@H]1CCN1 [(S)-17, (S)-6-(5-(azetidin-2-ylmethoxy)-6-methylpyridin-3-yl)hex-5-yn-1-ol]",–,7.29,–,3.60,< 5.00,3.77,7.38,–,4.30,7.20,< 20,"70,000","40,000",8.37,reduction in binding affinity for α4β2 nAChRs (α4β2 nAChR; relative to Sazetidine-A): 70 fold
"Cc1ncc(C#CC2CC2)cc1OC[C@@H]1CCN1 [(S)-27, (S)-3-(azetidin-2-ylmethoxy)-5-(cyclopropylethynyl)-2-methylpyridine]",–,6.96,–,3.82,< 5.00,3.82,7.96,3.82,4.44,6.80,< 20,"16,000","16,000",8.02,–
